We go through three molecules from PMC6009889, “Kinetic and structural studies on the interactions of Torpedo californica acetylcholinesterase with two donepezil-like rigid analogues” (Journal of Enzyme Inhibition and Medicinal Chemistry, 2018).

Where two headings read alike, the source gives them in different places.

In one test the test system is mouse BACE-1. The following applies: read-out: IC50 for mouse BACE-1 inhibition; cited from earlier work.
The target in test [1] is Torpedo californica AChE (TcAChE) (Tetronarce californica, UniProt P04058). Briefly: biochemical. The following applies: for Type of inhibition: Lineweaver-Burk, Dixon and Cornish-Bowden plots. It counts as biochemical. The method, then: The enzymatic activity of TcAChE was evaluated spectrophotometrically at room temperature by Ellman’s method[42] using a GE Ultrospec 7000 double beam spectrophotometer. […] The reaction was initiated by addition to the reaction mixture of the substrate acetylthiocoline (Sigma-Aldrich, Milan, Italy). To gain insights into the mechanism of action of 1, 2 and DNP, reciprocal plots of 1/velocity versus 1/[substrate] were constructed at substrate concentration in the 10–200 µM range. Data points are average values of three replicates. Three concentrations of inhibitors were selected for this study: 5, 10, and 20 nM. The plots were assessed by a weighted least-squares analysis that assumed the variance of the velocity (v) to be a constant percentage of v for the entire data set. Calculation of the inhibitor constant (Ki) value was carried out by re-plotting slopes of lines from the Lineweaver–Burk plot versus the inhibitor concentration and Ki was determined as the intersect on the negative x-axis. The apparent Ki’ (dissociation constant for the enzyme–substrate–inhibitor complex) value was determined by plotting the apparent 1/vmax versus inhibitor concentration. Data analyzes were performed with Graph 4.4.2.

The IC50 is the concentration needed to halve the response being measured. With `COc1cc2c(cc1OC)C(=O)C(CC1CCN(Cc3ccccc3)CC1)C2` (stereo not shown) [Donepezil, donepezil], the IC50 in the test with mouse BACE-1 is […].

Sequence of Torpedo californica AChE (TcAChE) (P04058 22-586): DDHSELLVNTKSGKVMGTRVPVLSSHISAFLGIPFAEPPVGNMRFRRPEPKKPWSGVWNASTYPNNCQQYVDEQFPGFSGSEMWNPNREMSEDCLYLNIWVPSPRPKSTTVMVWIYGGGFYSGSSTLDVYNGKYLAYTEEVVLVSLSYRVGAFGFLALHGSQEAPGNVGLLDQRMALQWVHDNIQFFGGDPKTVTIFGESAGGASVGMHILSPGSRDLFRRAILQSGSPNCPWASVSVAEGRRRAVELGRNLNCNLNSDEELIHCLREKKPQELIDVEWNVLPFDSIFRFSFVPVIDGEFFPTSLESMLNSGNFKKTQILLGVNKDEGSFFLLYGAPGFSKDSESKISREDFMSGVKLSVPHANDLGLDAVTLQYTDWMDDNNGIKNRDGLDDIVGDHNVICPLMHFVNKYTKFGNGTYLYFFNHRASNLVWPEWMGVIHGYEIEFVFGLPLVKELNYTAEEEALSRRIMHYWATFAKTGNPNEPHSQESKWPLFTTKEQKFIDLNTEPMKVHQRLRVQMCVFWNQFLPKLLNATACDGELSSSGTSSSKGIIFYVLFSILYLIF

Usually Ki stands for the dissociation constant of the complex between target and ligand, obtained from inhibition or displacement. For `COc1cc2c(cc1OC)C(=O)/C(=C/C1CCN(Cc3ccccc3)CC1)C2` [compound 1], in test [1], affinity was put at a Ki of 11.1 ± 2.88 nM and the Type of inhibition entry is listed as “mixed-type inhibition”. For the same molecule, the IC50 with mouse BACE-1 was 697 nM.

In the case of `COc1ccc2c(c1)C/C(=C\C1CCN(Cc3ccccc3)CC1)C2=O` [compound 2], in test [1], the Type of inhibition result is recorded as “mixed-type inhibition”. Besides, in test [1] (acetylthiocholine 10–200 µM, inhibitor 5, 10, 20 nM, K-phosphate buffer pH 7.0, room temperature, read-out: Ki (dissociation constant for free enzyme)), the Ki was determined as 29.9 ± 1.12 nM. In addition, the IC50 in the test with mouse BACE-1 is 333 nM.
